These are literature values, as cited in US20090104212A1, “METHODS AND SYSTEMS FOR TREATING CELL PROLIFERATION DISORDERS USING TWO-PHOTON SIMULTANEOUS ABSORPTION” (Immunolight, priority 2007, published 2009).

For data set [1] the following is noted: for kSET (Average): average over Λex 224, 266, 280 nm.
The next data set has as its system tumors. The conditions noted are these: in vivo.

SMILES strings stand for the structures. Like-named read-outs stand apart in the source and are kept apart here. Non-standard residues stand in square brackets, D forms with d. Residues, ends and D or L forms follow the SMILES beside them. Bpa = N[CH](Cc1ccc(C(=O)c2ccccc2)cc1)C(=O)O; 2Nal = N[CH](Cc1ccc2ccccc2c1)C(=O)O; Aib = CC(C)(N)C(=O)O

As to `CC(NC(=O)C(C)(C)NC(=O)C(Cc1ccc(C(=O)c2ccccc2)cc1)NC(=O)C(C)(C)NC(=O)C(Cc1ccc2ccccc2c1)NC(=O)C(C)(C)NC(=O)C(C)NC(=O)C(C)(C)N)C(=O)O` (single isomer, unassigned) [Compound 2B], in data set [1], the “kSET (Average)” value is 3.9e+07 s⁻¹. In addition, the ESSET in data set [1] (Λex 224 nm) was 77; in data set [1] (Λex 266 nm), 81; in data set [1] (Λex 280 nm) it was 83. Moreover, the kSET in data set [1] (Λex 224 nm) is 3.1e+07 s⁻¹; in data set [1] (Λex 266 nm), 3.9e+07 s⁻¹; in data set [1] (Λex 280 nm), 4.7e+07 s⁻¹.

Regarding `CC1NC(=O)C(C)(C)NC(=O)C(Cc2ccc(C(=O)c3ccccc3)cc2)NC(=O)C(C)(C)NC(=O)C(C)NC(=O)C(C)(C)NC(=O)C(Cc2ccc3ccccc3c2)NC(=O)C(C)(C)NC1=O` (centres unmarked) [Compound 1A] (cyclo([Aib][2Nal][Aib]A[Aib][Bpa][Aib]A); configuration not given here), the “kSET (Average)” value in data set [1] is 3.67e+07 s⁻¹. Further, the ESSET in data set [1] (Λex 224 nm) is given as 80; in data set [1] (Λex 266 nm), 79; in data set [1] (Λex 280 nm), 79. For the same compound, the kSET was 3.8e+07 s⁻¹ in data set [1] (Λex 224 nm), 3.6e+07 s⁻¹ in data set [1] (Λex 266 nm) and 3.6e+07 s⁻¹ in data set [1] (Λex 280 nm).

As for `CC(NC(=O)C(C)(C)NC(=O)C(Cc1ccc(C(=O)c2ccccc2)cc1)NC(=O)C(C)(C)NC(=O)C(C)NC(=O)C(C)(C)NC(=O)C(Cc1ccc2ccccc2c1)NC(=O)C(C)(C)N)C(=O)O` (centres unmarked) [Compound 1B] (H-[Aib][2Nal][Aib]A[Aib][Bpa][Aib]A-OH; configuration not given here), the ESSET in data set [1] (Λex 224 nm) is reported as 96.3; in data set [1] (Λex 266 nm) it was 95; in data set [1] (Λex 280 nm), 94. Moreover, the kSET in data set [1] (Λex 224 nm) was 2.44e+08 s⁻¹; in data set [1] (Λex 266 nm) it was 1.8e+08 s⁻¹; in data set [1] (Λex 280 nm), 1.36e+08 s⁻¹.

In the case of `CC(=O)[O-].CC(=O)[O-].CCc1c(CC)c2cc3nc(cnc4cc(OCCOCCOCCOC)c(OCCOCCOCCOC)cc4ncc4nc(cc1[n-]2)C(CCCO)=C4C)C(C)=C3CCCO.O.[Lu+3]` [Lutetium texahyrin, Motexafin lutetium], the “duration of skin photosensitivity” value (clinical use) was 24 to 48 h. For the same compound, the Length of photosensitization (in vivo) is 24 to 48 h. Further, in the data set with tumors, the “selectivity for tumors compared to normal tissues” value is recorded as “one of the greatest reported selectivities for tumors”.
